Assay results: patent US11655217B2, “Pyrazole MAGL inhibitors” (H. Lundbeck A/S, priority 2017, dated 2023)

Legend:
[1] = target: MAGL (Mus musculus (Mouse), UniProt O35678); assay: Mouse brain proteomes from inhibitor treated mice (oral gavage, sacrificed 4 h after administration, ABPP analysis); conditions: 5 mg/kg oral gavage
Experimental: (§1) Preparation of Mouse Brain Proteomes from Inhibitor Treated Mice.
(§2) Inhibitors were administered to wild-type C57Bl/6J by oral gavage in a vehicle of polyethylene glycol.

[2] = target: FAAH (Mus musculus (Mouse), UniProt O08914); assay: Mouse brain proteomes from inhibitor treated mice (oral gavage, sacrificed 4 h after administration, ABPP analysis), FAAH; conditions: 5 mg/kg oral gavage
Chain of FAAH (O08914 whole entry): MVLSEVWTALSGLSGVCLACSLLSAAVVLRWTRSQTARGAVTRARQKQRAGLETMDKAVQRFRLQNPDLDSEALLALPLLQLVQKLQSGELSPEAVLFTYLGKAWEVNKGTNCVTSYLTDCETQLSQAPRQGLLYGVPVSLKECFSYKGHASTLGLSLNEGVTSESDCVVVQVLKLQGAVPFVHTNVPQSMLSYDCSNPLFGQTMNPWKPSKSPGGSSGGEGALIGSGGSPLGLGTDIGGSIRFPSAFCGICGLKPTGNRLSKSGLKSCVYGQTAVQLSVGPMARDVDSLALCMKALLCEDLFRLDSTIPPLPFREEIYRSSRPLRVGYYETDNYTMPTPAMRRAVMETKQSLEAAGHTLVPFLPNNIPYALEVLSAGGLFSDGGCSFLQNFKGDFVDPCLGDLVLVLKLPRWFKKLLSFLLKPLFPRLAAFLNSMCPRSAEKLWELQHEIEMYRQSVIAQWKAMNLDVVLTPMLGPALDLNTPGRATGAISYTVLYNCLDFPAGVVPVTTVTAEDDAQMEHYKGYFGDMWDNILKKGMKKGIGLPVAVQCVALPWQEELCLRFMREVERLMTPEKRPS
Experimental: as §1, §2

Chain of MAGL (O35678 whole entry): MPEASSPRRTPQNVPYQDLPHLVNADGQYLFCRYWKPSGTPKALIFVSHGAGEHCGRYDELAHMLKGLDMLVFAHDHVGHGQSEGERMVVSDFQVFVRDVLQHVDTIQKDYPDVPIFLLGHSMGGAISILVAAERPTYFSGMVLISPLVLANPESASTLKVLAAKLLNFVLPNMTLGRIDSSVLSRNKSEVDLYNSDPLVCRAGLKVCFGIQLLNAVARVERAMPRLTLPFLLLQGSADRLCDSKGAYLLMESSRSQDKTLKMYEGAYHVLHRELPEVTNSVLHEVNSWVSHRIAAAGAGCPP

SMILES	MAGL % inh. 5 mg/kg (mouse) [1]	FAAH % inh. 5 mg/kg (mouse) [2]
COC1CCN(c2cc(C(F)(F)F)ccc2CN2CCN(C(=O)n3ccc(C(=O)O)n3)CC2)CC1 [Example 12, 1-(4-(2-(4-Methoxypiperidin-1-yl)-4-(trifluoromethyl)benzyl)piperazine-1-carbonyl)-1H-pyrazole-3-carboxylic Acid]	D (% inhibition is greater than or equal to 0% and less than 25%)	D (% inhibition is greater than or equal to 0% and less than 25%)
O=C(O)c1ccn(C(=O)N2CC3CN(Cc4cccc(Oc5ccc(Cl)cc5)c4)CC3C2)n1 (centres unmarked) [Example 116, 1-(5-(3-(4-chlorophenoxy)benzyl)octahydro-pyrrolo[3,4-c]pyrrole-2-carbonyl)-1H-pyrazole-3-carboxylic acid]	D (% inhibition is greater than or equal to 0% and less than 25%)	D (% inhibition is greater than or equal to 0% and less than 25%)
O=C(O)c1ccn(C(=O)N2CCC(Oc3ccc(Cl)cc3N3CCCC3)CC2)n1 [Example 11, 1-(4-(4-Chloro-2-(pyrrolidin-1-yl)phenoxy)piperidine-1-carbonyl)-1H-pyrazole-3-carboxylic Acid]	D (% inhibition is greater than or equal to 0% and less than 25%)	D (% inhibition is greater than or equal to 0% and less than 25%)
O=C(O)c1ccn(C(=O)N2CCN(Cc3ccc(Cl)cc3N3CCCC3)CC2)n1 [Example 107, 1-(4-(4-chloro-2-(pyrrolidin-1-yl)benzyl)piperazine-1-carbonyl)-1H-pyrazole-3-carboxylic acid]	D (% inhibition is greater than or equal to 0% and less than 25%)	D (% inhibition is greater than or equal to 0% and less than 25%)
O=C(O)c1ccn(C(=O)N2CCN(Cc3ccc(C(F)(F)F)cc3N3CCN4CCC[C@@H]4C3)CC2)n1 [Example 48, (R)-1-(4-(2-(hexahydropyrrolo-[1,2-a]pyrazin-2(1H)-yl)-4-(trifluoromethyl)benzyl)piperazine-1-carbonyl)-1H-pyrazole-3-carboxylic acid]	D (% inhibition is greater than or equal to 0% and less than 25%)	D (% inhibition is greater than or equal to 0% and less than 25%)
NC(=O)C1CCN(c2cc(C(F)(F)F)ccc2CN2CCN(C(=O)n3ccc(C(=O)O)n3)CC2)CC1 [Example 113, 1-(4-(2-(4-carbamoylpiperidin-1-yl)-4-(trifluoromethyl)benzyl)piperazine-1-carbonyl)-1H-pyrazole-3-carboxylic acid]	D (% inhibition is greater than or equal to 0% and less than 25%)	D (% inhibition is greater than or equal to 0% and less than 25%)
O=C(O)c1ccn(C(=O)N2CCN(Cc3ccc(C(F)(F)F)cc3N3CCOCC3)CC2)n1 [Example 3, 1-(4-(2-Morpholino-4-(trifluoromethyl)benzyl)piperazine-1-carbonyl)-1H-pyrazole-3-carboxylic Acid]	D (% inhibition is greater than or equal to 0% and less than 25%)	D (% inhibition is greater than or equal to 0% and less than 25%)
CN(Cc1ccc(C(F)(F)F)cc1N1C2CCC1COC2)C1(C)CCN(C(=O)n2ccc(C(=O)O)n2)CC1 [Example 207, 1-(4-((2-(3-oxa-8-azabicyclo[3.2.1]octan-8-yl)-4-(trifluoromethyl)benzyl)(methyl)-amino)-4-methyl-piperidine-1-carbonyl)-1H-pyrazole-3-carboxylic acid]	D (% inhibition is greater than or equal to 0% and less than 25%)	D (% inhibition is greater than or equal to 0% and less than 25%)
C[C@@H]1CCCN1c1cc(C(F)(F)F)ccc1CN1CCN(C(=O)n2ccc(C(=O)O)n2)CC1 [Example 95, (R)-1-(4-(2-(2-methylpyrrolidin-1-yl)-4-(trifluoromethyl)benzyl)piperazine-1-carbonyl)-1H-pyrazole-3-carboxylic acid]	D (% inhibition is greater than or equal to 0% and less than 25%)	D (% inhibition is greater than or equal to 0% and less than 25%)
O=C(O)c1ccn(C(=O)N2CCN(Cc3cccc(Cl)c3N3CC4COCC4C3)CC2)n1 (centres unmarked) [Example 211, 1-(4-(3-chloro-2-(tetrahydro-1H-furo[3,4-c]pyrrol-5(3H)-yl)benzyl)piperazine-1-carbonyl)-1H-pyrazole-3-carboxylic acid]	D (% inhibition is greater than or equal to 0% and less than 25%)	D (% inhibition is greater than or equal to 0% and less than 25%)
O=C(O)c1ccn(C(=O)N2CCC(Oc3ccc(Cl)c(N4CCCC4)c3)CC2)n1 [Example 121, 1-(4-(4-chloro-3-(pyrrolidin-1-yl)phenoxy)piperidine-1-carbonyl)-1H-pyrazole-3-carboxylic acid]	D (% inhibition is greater than or equal to 0% and less than 25%)	D (% inhibition is greater than or equal to 0% and less than 25%)
O=C(O)c1ccn(C(=O)N2CCN(Cc3ccc(C(F)(F)F)cc3N3CC[C@@H](F)C3)CC2)n1 [Example 101, (R)-1-(4-(2-(3-fluoropyrrolidin-1-yl)-4-(trifluoromethyl)benzyl)piperazine-1-carbonyl)-1H-pyrazole-3-carboxylic acid]	D (% inhibition is greater than or equal to 0% and less than 25%)	D (% inhibition is greater than or equal to 0% and less than 25%)
O=C(O)c1ccn(C(=O)N2CCC3(CCN(Cc4cc(Cl)ccc4C(F)(F)F)C3)CC2)n1 [Example 43, 1-(2-(5-chloro-2-(trifluoromethyl)benzyl)-2,8-diazaspiro[4.5]decane-8-carbonyl)-1H-pyrazole-3-carboxylic acid]	D (% inhibition is greater than or equal to 0% and less than 25%)	D (% inhibition is greater than or equal to 0% and less than 25%)
O=C(O)c1ccn(C(=O)N2CCN(Cc3cccc(Oc4ccc(F)cc4)c3)CC2)n1 [Example 51, 1-(4-(3-(4-fluorophenoxy)benzyl)piperazine-1-carbonyl)-1H-pyrazole-3-carboxylic acid]	D (% inhibition is greater than or equal to 0% and less than 25%)	D (% inhibition is greater than or equal to 0% and less than 25%)
O=C(O)c1ccn(C(=O)N2CCN(Cc3ccc(C(F)(F)F)cc3N3CC[C@H](F)C3)CC2)n1 [Example 92, (S)-1-(4-(2-(3-fluoropyrrolidin-1-yl)-4-(trifluoromethyl)benzyl)-piperazine-1-carbonyl)-1H-pyrazole-3-carboxylic acid]	D (% inhibition is greater than or equal to 0% and less than 25%)	D (% inhibition is greater than or equal to 0% and less than 25%)
O=C(O)c1ccn(C(=O)N2CCN(Cc3ccc(C(F)(F)F)cc3N3CCCCC3)CC2)n1 [Example 100, 1-(4-(2-(piperidin-1-yl)-4-(trifluoromethyl)benzyl)piperazine-1-carbonyl)-1H-pyrazole-3-carboxylic acid]	D (% inhibition is greater than or equal to 0% and less than 25%)	D (% inhibition is greater than or equal to 0% and less than 25%)
O=C(O)c1ccn(C(=O)N2CC3CN(Cc4ccc(N5CCCC5)cc4C(F)(F)F)CC3C2)n1 (centres unmarked) [Example 123, 1-(5-(4-(pyrrolidin-1-yl)-2-(trifluoromethyl)benzyl)octahydro-pyrrolo[3,4-c]pyrrole-2-carbonyl)-1H-pyrazole-3-carboxylic acid]	D (% inhibition is greater than or equal to 0% and less than 25%)	D (% inhibition is greater than or equal to 0% and less than 25%)
O=C(O)c1ccn(C(=O)N2CCC3(CCCN3Cc3cc(Cl)cc(C(F)(F)F)c3)CC2)n1 [Example 86, 1-(1-(3-chloro-5-(trifluoromethyl)benzyl)-1,8-diazaspiro[4.5]decane-8-carbonyl)-1H-pyrazole-3-carboxylic acid]	D (% inhibition is greater than or equal to 0% and less than 25%)	D (% inhibition is greater than or equal to 0% and less than 25%)
O=C(O)c1ccn(C(=O)N2CCN(Cc3ccc(C(F)(F)F)cc3N3CCCC3)CC2)n1 [Example 83, 1-(4-(2-(pyrrolidin-1-yl)-4-(trifluoromethyl)benzyl)piperazine-1-carbonyl)-1H-pyrazole-3-carboxylic acid]	D (% inhibition is greater than or equal to 0% and less than 25%)	D (% inhibition is greater than or equal to 0% and less than 25%)
O=C(O)c1ccn(C(=O)N2CCN(Cc3cccc(C(F)(F)F)c3N3CCCC3)CC2)n1 [Example 90, 1-(4-(2-(pyrrolidin-1-yl)-3-(trifluoromethyl)benzyl)piperazine-1-carbonyl)-1H-pyrazole-3-carboxylic acid]	D (% inhibition is greater than or equal to 0% and less than 25%)	D (% inhibition is greater than or equal to 0% and less than 25%)
O=C(O)c1ccn(C(=O)N2CCN(Cc3ccc(C(F)(F)F)cc3N3CCC(O)CC3)CC2)n1 [Example 120, 1-(4-(2-(4-hydroxypiperidin-1-yl)-4-(trifluoromethyl)benzyl)piperazine-1-carbonyl)-1H-pyrazole-3-carboxylic acid]	D (% inhibition is greater than or equal to 0% and less than 25%)	D (% inhibition is greater than or equal to 0% and less than 25%)
O=C(O)c1nn(C(=O)N2CCC3(CCN(Cc4cc(Cl)ccc4C(F)(F)F)C3)CC2)cc1Cl [Example 133, 4-chloro-1-(2-(5-chloro-2-(trifluoromethyl)benzyl)-2,8-diazaspiro[4.5]decane-8-carbonyl)-1H-pyrazole-3-carboxylic acid]	D (% inhibition is greater than or equal to 0% and less than 25%)	D (% inhibition is greater than or equal to 0% and less than 25%)
